Results on 11 compounds are retold here after patent US9790233B2, “Compositions and methods of modulating 15-PGDH activity” (CASE WESTERN RESERVE UNIVERSITY, priority 2012, dated 2017).

Each structure is given as a SMILES string. Like-named read-outs stand apart in the source and are kept apart here. A value given as a limit tells only on which side of the number the result lay.

One may read the IC50 as the point on the concentration scale where inhibition reaches its midpoint. As usually defined, the inhibition is the change of the read-out against control, counted positive when it falls.

The subject of data set [1] is A549 cells. The data set can be described thus: PGE2 levels in the medium of IL1-beta stimulated A549 cells.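 On all read-outs here: PGE2 in the collected culture medium quantified by enzyme immunoassay (ELISA), with data drawn from three independent experiments.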 Particulars: for Decrease PGE-2 (IL-1beta-A549, %): media of IL-1beta stimulated A549 cells. Format: cell-based.
For data set [2], the system named is 15-PGDH mRNA. The data set can be described thus: 15-PGDH mRNA levels by real-time PCR. Format: cell-based. Conditions: treated colon cancer cell lines. (In general: In qPCR the cycle at which signal appears reflects the starting amount.)
The test system of data set [3] is 15-PGDH-luciferase fusion reporter in V9m, LS174T and V503 cells. The data set can be described thus: 15-PGDH-luciferase fusion gene reporter induction, stated for the three cell line backgrounds together. Format: cell-based. Particulars: for induction of 15-PGDH-luciferase reporter in cell lines (SW054384 analogues): […] and […]. (In general: Reporter assays use an easily measured gene product as a stand-in for the process of interest.)

The subject of data set [4] is 15-PGDH luciferase fusion construct in LS174T reporter cell line. The experiment in a line: 15-PGDH-luciferase fusion gene reporter induction, LS174T cells. Format: cell-based. Particulars: Homo sapiens.
The target in data set [5] is 15-PGDH protein (Homo sapiens (Human), UniProt P15428). The data set can be described thus: Inhibition of enzymatic activity of recombinant 15-PGDH in vitro (tritium transfer from PGE2 or NADH fluorescence). Format: biochemical. Conditions: for IC50: recombinant 15-PGDH in vitro, read-out: Enzyme inhibition (IC50).
Sequence of 15-PGDH protein (P15428 whole entry, the tested form may be a part): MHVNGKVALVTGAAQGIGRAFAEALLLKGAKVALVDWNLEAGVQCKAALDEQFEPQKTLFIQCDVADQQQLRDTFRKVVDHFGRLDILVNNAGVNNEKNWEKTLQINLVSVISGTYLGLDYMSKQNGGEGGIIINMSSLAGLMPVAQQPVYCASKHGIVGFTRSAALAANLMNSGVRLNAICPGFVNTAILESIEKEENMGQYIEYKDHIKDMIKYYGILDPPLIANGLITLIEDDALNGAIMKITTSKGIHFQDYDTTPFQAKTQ
Data set [6] relates to 15-PGDH luciferase fusion construct in V9m reporter cell line. The data set can be described thus: 15-PGDH-luciferase fusion gene reporter induction, V9m cells. Format: cell-based.
Data set [7] deals with A549 cells. The experiment in a line: Cellular toxicity on A549 cells (CellTiter-Glo). Format: cell-based. More on the design: Decrease Cell viability in A549 cell (%): concentration or dose not given beside the values. Conditions: for Decrease Cell viability in A549 cell (%): A549 cells.
In data set [8] the test system is 15-PGDH luciferase fusion construct in Vaco503 reporter cell line. The data set can be described thus: 15-PGDH-luciferase fusion gene reporter induction, V503 cells. Format: cell-based.
[9] abbreviates: read-out: Ls174T-SC1 reporter activity, % ([…]), LS174T reporter cells, […] compound, % induction of luciferase activity over basal level, read-out: Ls174T-SC1 reporter activity, % (2.5 μM).
Setting [10] is: read-out: Ls174T-SC1 reporter activity, % ([…]), LS174T reporter cells, […] compound, % induction of luciferase activity over basal level, read-out: Ls174T-SC1 reporter activity, % (7.5 μM).
Where [11] appears, read: read-out: V9M-SC3 Reporter activity ([…]) (%), V9m reporter cells, […] compound, % induction of luciferase activity over basal level, read-out: V9M-SC3 Reporter activity (2.5 μM) (%).
The mark [12] stands for this setting: read-out: V9M-SC3 Reporter activity ([…]), %, V9m reporter cells, […] compound, % induction of luciferase activity over basal level, read-out: V9M-SC3 Reporter activity (7.5 μM), %.
[13] abbreviates: read-out: V503-3H9-7 reporter activity, % ([…]), V503 reporter cells, […] compound, % induction of luciferase activity over basal level, read-out: V503-3H9-7 reporter activity, % (2.5 μM).
The mark [14] stands for this setting: read-out: V503-3H9-7 reporter activity, % ([…]), V503 reporter cells, […] compound, % induction of luciferase activity over basal level, read-out: V503-3H9-7 reporter activity, % (7.5 μM).

`O=C(c1ccc2nc(-c3ccccc3)c(-c3ccccc3)nc2c1)N1CCCCC1` [SW145753]: the “PGE2 levels in medium” value in data set [1] (IL1-beta 23 hours, compound added for the last 5 hours) was “clear inhibition of 15-PGDH activity”. The “15-PGDH mRNA levels (real-time PCR)” value in data set [2] is “do not in general alter 15-PGDH mRNA levels”. Moreover, the “luciferase activity of cells expressing 15-PGDH luciferase fusion construct” value in data set [3] (V9m, LS174T, V503, FIG. 1) was “increase luciferase activity”.
Turning to `COc1ccc(S(=O)(=O)N(CC(=O)Nc2cccnc2)c2cc(OC)ccc2OC)cc1` [SW202940], in data set [1], the “Decrease PGE-2 (IL-1beta-A549, %)” value worked out at 80.46%. Further, the activation at […] in data set [4] (setting [9]) was 148%; in data set [4] (setting [10]), 211%; in data set [6] (setting [11]), 147%; in data set [6] (setting [12]), 181%; in data set [8] (setting [13]) it was 181%; in data set [8] (setting [14]) it was 183%. Further, in data set [3], the “induction of 15-PGDH-luciferase reporter in cell lines (SW054384 analogues)” value (from here on “induction … (SW054384 analogues)”) was “active in inducing 15-PGDH-luciferase reporter activity”. The IC50 in data set [5] is ~5000 nM. In addition, in data set [7], the “Decrease Cell viability in A549 cell (%)” value is 45.18%.
Turning to `COc1ccc(OC)c(N(CC(=O)Nc2cccnc2)S(=O)(=O)c2ccc(Br)cc2)c1` [SW203737], the “lowering of PGE2 levels in media” value in data set [1] was “show activity in lowering PGE2”. In data set [1], the “Decrease PGE-2 (IL-1beta-A549, %)” value is 47.78%. The activation at […] in data set [4] (setting [9]) came out at 76.7%; in data set [4] (setting [10]), 85.1%; in data set [6] (setting [11]), 93.4%; in data set [6] (setting [12]), 103%; in data set [8] (setting [13]) it was 176%; in data set [8] (setting [14]) it was 154%. Further, the “Decrease Cell viability in A549 cell (%)” value in data set [7] was −2.56%.
For the compound `COc1ccc(S(=O)(=O)N(CC(=O)N2CCCCC2)c2cc(OC)ccc2OC)cc1` [SW207999], the activation at […] in data set [4] (setting [9]) is 98%; in data set [4] (setting [10]), 123%; in data set [6] (setting [11]) it was 128%; in data set [6] (setting [12]) it was 124%; in data set [8] (setting [13]) it was 124%; in data set [8] (setting [14]), 110%. The “induction … (SW054384 analogues)” value in data set [3] is on record as “active in inducing the 15-PGDH-luciferase reporter”.
For the compound `COc1ccc(OC)c(N(CC(=O)Nc2csnc2C)S(=O)(=O)c2ccccc2)c1` [SW203703], the “lowering of PGE2 levels in media” value in data set [1] is listed as “show activity in lowering PGE2”. For the same compound, the “Decrease PGE-2 (IL-1beta-A549, %)” value in data set [1] was 31.90%. Further, the activation at […] in data set [4] (setting [9]) amounted to 85.8%; in data set [4] (setting [10]), 80.2%; in data set [6] (setting [11]), 108%; in data set [6] (setting [12]), 106%; in data set [8] (setting [13]) it was 143%; in data set [8] (setting [14]), 78%. Moreover, the “induction … (SW054384 analogues)” value in data set [3] is “active in inducing the 15-PGDH-luciferase reporter”. Further, the “Decrease Cell viability in A549 cell (%)” value in data set [7] is −1.97%.
For `CCCC[S+]([O-])c1sc2nc(-c3nccs3)ccc2c1N` (stereo not shown) [SW206992, 2-(butylsulfinyl)-6-(thiazol-2-yl)thieno[2,3-b]pyridin-3-amine], the “compound concentration at maximal effect on PGE2” value in data set [1] (IL-1β 16 h, compound 8 h) is 2.5 µM. Also, the “exposure needed to induce maximal reporter induction” value in data set [3] (24 hours, three cell line backgrounds) was > 1000 nM. Besides, the “Concentration for Full Cell Line Reporter Induction” value in data set [3] (maximal induction of reporter, Table 3) is >1 µM. Moreover, the “effect on CellTitre-Glo levels” value in data set [7] (24 hours, concentrations of up to 10 uM) is “No effect on CellTitre-Glo levels”. Also, in data set [7] (concentration needed to decrease cell numbers in a cell culture assay, Table 3), the Toxicity was >7.5 µM.
On to `COc1ccc(OC)c(N(CC(=O)Nc2nccs2)S(=O)(=O)c2ccccc2)c1` [SW203691], for which the “Decrease PGE-2 (IL-1beta-A549, %)” value in data set [1] is listed as 36.76%. In addition, the activation at […] was 5.47% in data set [4] (setting [9]); 22% in data set [4] (setting [10]); 7.78% in data set [6] (setting [11]); 19.8% in data set [6] (setting [12]); 47.1% in data set [8] (setting [13]); 90% in data set [8] (setting [14]). In addition, in data set [5] (read-out: Enzyme inhibition % ([…]), recombinant 15-PGDH, […] compound, read-out: Enzyme inhibition % (7.5 μM)), the inhibition at […] amounted to 3.12%. For the same compound, the “Decrease Cell viability in A549 cell (%)” value in data set [7] is on record as 0.00%.
Consider `COc1ccc(S(=O)(=O)N(CC(=O)Nc2ccncc2)c2cc(OC)ccc2OC)cc1` [SW202989], for which, in data set [1], the “Decrease PGE-2 (IL-1beta-A549, %)” value turned out to be 69.40%. Besides, the activation at […] in data set [4] (setting [9]) came to 159%; in data set [4] (setting [10]) it was 171%; in data set [6] (setting [11]) it was 188%; in data set [6] (setting [12]), 184%; in data set [8] (setting [13]) it was 208%; in data set [8] (setting [14]), 214%. Also, in data set [5], the IC50 came out at 427 nM. Also, in data set [7], the “Decrease Cell viability in A549 cell (%)” value was 30.59%.
For the compound `C[S+]([O-])c1sc2nc(-c3cccs3)cc(-c3ccccc3)c2c1N` (stereo not shown) [SW208079, 2-(methylsulfinyl)-4-phenyl-6-(thiophen-2-yl)thieno[2,3-b]pyridin-3-amine], the activation at […] in data set [4] (read-out: LS174T reporter activity ([…]), […], % increased luciferase activity over basal level, read-out: LS174T reporter activity (2.5 uM)) was found to be 53.4%; in data set [4] (read-out: LS174T reporter activity ([…]), […], % increased luciferase activity over basal level, read-out: LS174T reporter activity (7.5 uM)), 43.8%; in data set [6] (read-out: V9M reporter activity ([…]), […], % increased luciferase activity over basal level, 100 = doubling, read-out: V9M reporter activity (2.5 uM)) it was 36%; in data set [6] (read-out: V9M reporter activity ([…]), […], % increased luciferase activity over basal level, 100 = doubling, read-out: V9M reporter activity (7.5 uM)) it was 32.8%; in data set [8] (read-out: V503 reporter activity ([…]), […], % increased luciferase activity over basal level, read-out: V503 reporter activity (2.5 uM)) it was 85.3%; in data set [8] (read-out: V503 reporter activity ([…]), […], % increased luciferase activity over basal level, read-out: V503 reporter activity (7.5 uM)) it was 61.8%. Also, the “reporter induction in reporter cell lines” value in data set [3] is given as “marked loss of activity in inducing the cell line reporters”. The “IC50 higher compared to SW033291” value in data set [5] (effect of carbon side chain length) was “over 60 fold”.
For the compound `COc1ccc(OC)c(N(CC(=O)Nc2cccnc2)S(=O)(=O)c2ccc(F)cc2)c1` [SW203736], the “lowering of PGE2 levels in media” value in data set [1] is “show activity in lowering PGE2”. Also, the “Decrease PGE-2 (IL-1beta-A549, %)” value in data set [1] turned out to be 31.86%. The activation at […] was found to be 127% in data set [4] (setting [9]); 156% in data set [4] (setting [10]); 132% in data set [6] (setting [11]); 145% in data set [6] (setting [12]); 244% in data set [8] (setting [13]); 204% in data set [8] (setting [14]). Besides, in data set [7], the “Decrease Cell viability in A549 cell (%)” value was −3.06%.
As to `COc1ccc(OC)c(N(CC(=O)Nc2cc(C)no2)S(=O)(=O)c2ccccc2)c1` [SW203704], in data set [1], the “Decrease PGE-2 (IL-1beta-A549, %)” value was found to be 22.33%. Besides, the activation at […] amounted to 8.64% in data set [4] (setting [9]); 12.5% in data set [4] (setting [10]); 8.71% in data set [6] (setting [11]); 8.04% in data set [6] (setting [12]); 52.8% in data set [8] (setting [13]); 37.8% in data set [8] (setting [14]). For the same compound, the “induction … (SW054384 analogues)” value in data set [3] is reported as “active in inducing the 15-PGDH-luciferase reporter”. Moreover, in data set [7], the “Decrease Cell viability in A549 cell (%)” value was −2.70%.
